Reference: ChEMBL document CHEMBL1201862, “PubChem BioAssay data set” (2004)
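The compound was tested at five concentrations on cells cultured in 96-well plates, with a 48-hour exposure period. GI50: concentration for 50% inhibition of growth.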 Activity calls are given as the source filed them. Rule as the data show it: active = GI50 up to about 1.1 µM and inactive = higher.

Columns and labels:
Test in all cases: DTP human tumour cell line panel, 48 h
[1] = system: SNB-19
[2] = system: 786-0
[3] = system: MDA-N
[4] = system: MDA-MB-231
[5] = system: MCF7
[6] = system: T47D
[7] = system: UACC-257
[8] = system: NCI/ADR-RES
[9] = system: EKVX
[10] = system: SK-MEL-2
[11] = system: Hs-578T
[12] = system: A549
[13] = system: SN12C
[14] = system: MDA-MB-435
[15] = system: LOX IMVI
[16] = system: HT-29
[17] = system: RXF 393
[18] = system: PC-3

Measured: GI50

COC(=O)CCCC(=O)NC1=C(Nc2ccccc2)C(=O)c2ccccc2C1=O
inactive: [1] 18.2 µM | [2] 17.9 µM | [3] 3.89 µM | [4] 19.1 µM | [5] 15.4 µM | [6] 24.3 µM | [7] 13.3 µM | [8] 18.2 µM | [9] 24.4 µM | [10] 18.1 µM | [11] 28.7 µM | [12] 19.5 µM | [13] 18 µM | [14] 5.51 µM | [15] 17.4 µM

COc1cc(Cc2cnc(N)nc2N)cc(OC)c1OCCCNc1ccc([N+](=O)[O-])cc1
inactive: [1] 12.8 µM | [2] 12.4 µM | [3] 16.2 µM | [4] 12.9 µM | [16] 2.92 µM | [5] 12.1 µM | [6] 8.07 µM | [17] 10.4 µM | [7] 11.9 µM | [8] 18.6 µM | [18] 10.1 µM | [9] 15.3 µM | [10] 15.5 µM | [11] 18.5 µM | [12] 13 µM | [13] 16.3 µM | [14] 13.8 µM

CC(=O)OC[C@@H](OC(C)=O)[C@H](OC(C)=O)[C@@H]1OC(C)(C)O[C@@H]1C1SCCCS1
inactive: [1] > 100 µM | [2] > 100 µM | [3] > 100 µM | [4] > 100 µM | [5] > 100 µM | [6] > 100 µM | [17] > 100 µM | [7] > 100 µM | [18] > 100 µM | [9] > 100 µM | [10] > 100 µM | [11] > 100 µM | [12] > 100 µM | [14] > 100 µM | [15] > 100 µM

COc1ccc(/N=N/c2ccc3oc(=O)c(C(=O)Nc4ccc(Cl)cc4)cc3c2)cc1
inactive: [2] > 10 µM | [3] > 10 µM | [4] 6.25 µM | [16] > 10 µM | [5] 3.17 µM | [6] 6.76 µM | [17] > 10 µM | [7] > 10 µM | [8] 5.5 µM | [18] 2.56 µM | [9] 6.15 µM | [10] > 10 µM | [11] > 10 µM | [13] > 10 µM | [14] > 10 µM | [15] 9.95 µM

Cc1nn(C(=O)Cc2ccccc2)c2c1C(c1ccc(O)cc1)SC(=N)N2 (stereo unspecified)
inactive: [1] > 100 µM | [2] > 100 µM | [3] > 100 µM | [4] > 100 µM | [16] > 100 µM | [5] > 100 µM | [6] > 100 µM | [7] > 100 µM | [18] > 100 µM | [9] > 100 µM | [11] > 100 µM | [12] > 100 µM | [13] > 100 µM | [14] > 100 µM | [15] > 100 µM

C1=C[C@@H]2c3ccc4cnccc4c3NC[C@@H]2C1
inactive: [1] > 100 µM | [2] > 100 µM | [3] > 100 µM | [5] > 100 µM | [6] > 100 µM | [17] > 100 µM | [7] > 100 µM | [8] > 100 µM | [18] > 100 µM | [9] 16.8 µM | [11] 46.8 µM | [12] > 100 µM | [13] > 100 µM | [14] > 100 µM

COC(=O)[C@@]12CC3CN(Cc4c1[nH]c1ccccc41)C2CC3=O
inactive: [1] > 100 µM | [2] > 100 µM | [3] > 100 µM | [4] > 100 µM | [16] > 100 µM | [5] > 100 µM | [6] > 100 µM | [17] > 100 µM | [7] > 100 µM | [8] > 100 µM | [18] > 100 µM | [9] > 100 µM | [10] > 100 µM | [12] > 100 µM | [13] > 100 µM | [14] > 100 µM | [15] > 100 µM

COC(=O)c1cc(C#N)[nH]c1-c1ccsc1
inactive: [2] > 100 µM | [3] > 100 µM | [4] > 100 µM | [16] > 100 µM | [5] 10 µM | [6] 25.1 µM | [17] 72.4 µM | [7] 54.3 µM | [8] > 100 µM | [18] > 100 µM | [9] 74.8 µM | [10] > 100 µM | [11] > 100 µM | [12] > 100 µM | [13] > 100 µM | [14] > 100 µM | [15] > 100 µM
